Source: PubChem BioAssay (NCI)
“And” between values parts separate entries of the source, which are not always exact repeats. Equal values may be shown once.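 Values below derive from 48-hour exposures of cells grown in 96-well plates, with endpoints linearly interpolated between the two concentrations bracketing the appropriate inhibition level. The concentration for 50% growth inhibition is given as GI50. At the TGI there is no net growth.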

Tests used:
Assay in all cases: inhibition of tumour cell growth, NCI panel, 48 h
DMS 273 small cell lung = tested on: DMS 273 small cell lung
SF-539 CNS = tested on: SF-539 CNS
OVCAR-8 ovarian = tested on: OVCAR-8 ovarian
U251 CNS = tested on: U251 CNS
TK-10 renal = tested on: TK-10 renal
XF 498 CNS = tested on: XF 498 CNS
HOP-62 NSCLC = tested on: HOP-62 NSCLC
MALME-3M melanoma = tested on: MALME-3M melanoma
BT-549 breast = tested on: BT-549 breast
HS 578T breast = tested on: HS 578T breast

| Compound | TGI (DMS 273 small cell lung) [µM] | TGI (SF-539 CNS) | TGI (OVCAR-8 ovarian) [µM] | TGI (U251 CNS) | TGI (TK-10 renal) | TGI (XF 498 CNS) | TGI (HOP-62 NSCLC) | TGI (MALME-3M melanoma) | TGI (BT-549 breast) [µM] | TGI (HS 578T breast) | GI50 (SF-539 CNS) [µM] | GI50 (OVCAR-8 ovarian) [µM] | GI50 (U251 CNS) [µM] | GI50 (TK-10 renal) [µM] | GI50 (XF 498 CNS) [µM] | GI50 (HS 578T breast) [µM] | GI50 (HOP-62 NSCLC) [µM] | GI50 (MALME-3M melanoma) [µM] |
| --- | --- | --- | --- | --- | --- | --- | --- | --- | --- | --- | --- | --- | --- | --- | --- | --- | --- | --- |
| CC1=NNC(=NCCN(C)C)C/C1=C/c1ccccc1Cl | > 100 | > 100 µM | > 100 | > 100 µM | > 100 µM | > 100 µM | > 100 µM | > 100 µM |  |  |  |  |  |  |  |  |  |  |
| N/C(=N\NS(=O)(=O)c1ccccc1)Oc1ccc(Cl)cc1 | > 100 | > 100 µM | > 100 | > 100 µM | > 100 µM | > 100 µM | > 100 µM | > 100 µM |  |  |  |  |  |  |  |  |  |  |
| CN(C)C[C@H]1CC[C@@H](CN(C)C)C1=O | 16.7 | 21.4 µM | 17.1 | > 40.4 µM | 15 µM | 15.1 µM | > 50 µM | 7.25 µM | 14.1 | 36.6 µM |  |  |  |  |  |  |  |  |
| Cc1nc(C)c(C(=O)Nc2cccc3c2C(=O)NC3=O)cc1C(=O)Nc1cccc2c1C(=O)NC2=O | > 100 | > 100 µM | > 100 | > 100 µM | > 100 µM | > 100 µM | > 100 µM | > 100 µM |  |  |  |  |  |  |  |  |  |  |
| c1ccc2c(CNCCCCCCNCc3cccc4ccccc34)cccc2c1 | 26.6 | 3.48 µM | 29 | 22.8 µM | 25.2 µM | 7.26 µM | 30.6 µM | 3.42 µM |  |  |  |  |  |  |  |  |  |  |
| CC#C[C@@]1(O)CCCC[C@@H]1O | > 100 | > 100 µM | > 100 | > 100 µM | > 100 µM | > 100 µM | > 100 µM | > 100 µM |  |  |  |  |  |  |  |  |  |  |
| N#Cc1cccc(NC(=O)c2ccc(C(=O)O)c(C(=O)c3ccc(C(=O)O)c(C(=O)Nc4cccc(C#N)c4)c3)c2)c1 | > 100 | > 100 µM | > 100 | > 100 µM | > 100 µM | > 100 µM | > 100 µM | > 100 µM |  |  |  |  |  |  |  |  |  |  |
| Nc1nc2c(ncn2C2OC(CO)C(O)C2N)c(=O)[nH]1 (stereo not given) | > 100 | > 100 µM | > 100 | > 100 µM | > 100 µM | > 100 µM | > 100 µM | > 100 µM |  |  |  |  |  |  |  |  |  |  |
| Cc1ccc2nc3c(C)c(Cl)c(=O)cc-3sc2c1 | > 91.3 | 62.3 µM | > 100 | > 91.5 µM | > 100 µM | 32.5 µM | 69.4 µM | > 71.5 µM | > 100 | 71.7 µM |  |  |  |  |  |  |  |  |
| CCOC(=O)C1N(S(=O)(=O)c2ccc(C)cc2)CCC12c1ccccc1N(C(C)=O)C2C(/C=C/C(=O)OC)=C/C(=O)OC (stereo not given) | > 100 | > 100 µM | > 100 | > 100 µM | > 100 µM | > 100 µM | > 100 µM | > 100 µM |  |  |  |  |  |  |  |  |  |  |
| OCC(O)C(O)c1nn(-c2ccccc2)c2nc3cc(Cl)c(Cl)cc3nc12 (stereo not given) | 56.6 | 71 µM | 69.2 | > 100 µM | 48.4 µM | > 100 µM | > 100 µM | 44.1 µM |  |  |  |  |  |  |  |  |  |  |
| Cc1cc(C)cc(-n2c3nc(=O)n(C)c(=O)c-3nc3ccccc32)c1 | 37.7 | 49.7 µM | > 100 | 50.5 µM | > 100 µM | 81 µM | > 100 µM | 30.3 µM |  |  |  |  |  |  |  |  |  |  |
| Cn1c2c([N+](=O)[O-])[se]nc2c(=O)n1-c1ccc([N+](=O)[O-])cc1 | 6.96 | 4.49 µM | 2.72 | 7.04 µM | 16.2 µM | 3.71 µM | 14.2 µM | 3.23 µM |  |  |  |  |  |  |  |  |  |  |
| CC(=O)NS(=O)(=O)c1ccc(NC(=O)COC(=O)c2cccc3c(=O)c4ccccc4[nH]c23)cc1 | > 100 | > 100 µM | > 100 | > 100 µM | > 100 µM | > 100 µM | > 100 µM | > 100 µM |  |  |  |  |  |  |  |  |  |  |
| COC(=O)C1=C(OC)c2cc3c(cc2C(c2cc(OC)c(OC)c(OC)c2)C1C(=O)OC)OCO3 (stereo not given) | > 100 | > 100 µM | > 100 | > 100 µM | > 100 µM | > 100 µM | > 100 µM | > 100 µM |  |  |  |  |  |  |  |  |  |  |
| O=C(c1cc(O)ccc1O)c1ccccc1C(Cl)(Cl)Cl | > 100 | > 100 µM | > 100 | > 100 µM | > 100 µM | 84.2 µM | > 100 µM | > 100 µM |  |  |  |  |  |  |  |  |  |  |
| C/C1=C\[C@H](C)C[C@H](C)OC(=O)C[C@H](c2ccc(O)cc2)NC(=O)[C@@H](Cc2c(Br)[nH]c3ccccc23)N(C)C(=O)[C@H](C)NC(=O)[C@@H](C)C1 | 0.83 | 0.622 µM and 0.0655 µM | 0.568 | 0.859 µM and 0.74 µM | 0.428 µM and 0.26 µM | 0.448 µM and 0.0585 µM | 0.443 µM and 0.369 µM | 0.404 µM and 0.196 µM | 0.0669 | 0.606 µM and 0.134 µM | 0.238 | 0.0516 | 0.0328 | 0.0982 | 0.0249 | 0.0451 | 0.0883 | 0.032 |
